# Measured values reported in patent US9464084B2, “P2X7 modulators” (Janssen Pharmaceutica NV, priority 2013, dated 2016).
# Target: P2X7 (Homo sapiens (Human), UniProt Q99572)
# Test: P2X7 antagonism in human PBMCs (LPS + Bz-ATP induced IL-1β release, ELISA);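 note: PBMCs from donor human blood, with a further 1.5 h incubation of the cells in the assay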
# Format: cell-based
# Settings: compound 1 μM, LPS 30 ng/ml, Bz-ATP 0.5 mM
# Sequence of P2X7 (Q99572 whole entry): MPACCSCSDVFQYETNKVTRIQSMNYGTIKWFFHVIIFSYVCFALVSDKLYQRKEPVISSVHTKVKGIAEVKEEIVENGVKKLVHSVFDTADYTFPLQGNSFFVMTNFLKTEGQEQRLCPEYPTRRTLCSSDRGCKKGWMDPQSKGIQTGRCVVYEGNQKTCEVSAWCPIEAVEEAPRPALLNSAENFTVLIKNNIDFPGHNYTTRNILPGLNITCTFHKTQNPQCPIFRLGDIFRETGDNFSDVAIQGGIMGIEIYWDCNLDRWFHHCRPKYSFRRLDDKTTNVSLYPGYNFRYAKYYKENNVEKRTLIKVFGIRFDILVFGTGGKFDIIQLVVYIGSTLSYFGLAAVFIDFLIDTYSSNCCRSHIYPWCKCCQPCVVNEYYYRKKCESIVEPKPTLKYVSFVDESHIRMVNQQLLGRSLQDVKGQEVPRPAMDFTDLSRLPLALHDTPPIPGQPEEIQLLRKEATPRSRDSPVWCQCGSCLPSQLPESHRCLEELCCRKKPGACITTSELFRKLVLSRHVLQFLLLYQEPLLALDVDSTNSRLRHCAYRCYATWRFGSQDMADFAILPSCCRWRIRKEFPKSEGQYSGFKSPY
row,SMILES,PBMC 1 μM (% control)
1,"O=C(c1cccc2c1OCC2)N1CCc2c(ncn2-c2ccccc2)C1 [Example 51, 5-(2,3-Dihydro-1-benzofuran-7-ylcarbonyl)-1-phenyl-4,5,6,7-tetrahydro-1H-imidazo[4,5-c]pyridine]",97.6
2,"O=C(c1cccc(C(F)(F)F)c1Cl)N1CCc2c(nnn2-c2cnccn2)C1 [Example 91, 5-{[2-Chloro-3-(trifluoromethyl)phenyl]carbonyl}-1-pyrazin-2-yl-4,5,6,7-tetrahydro-1H-[1,2,3]triazolo[4,5-c]pyridine]",6.1
3,"O=C(O)C1c2ncn(-c3ccccn3)c2CCN1C(=O)c1cccc(C(F)(F)F)c1Cl (stereo not drawn) [Example 33, 5-{[2-Chloro-3-(trifluoromethyl)phenyl]carbonyl}-1-pyridin-2-yl-4,5,6,7-tetrahydro-1H-imidazo[4,5-c]pyridine-4-carboxylic acid]",100.7

# Same assay, conditions: compound 10 μM, LPS 30 ng/ml, Bz-ATP 0.5 mM
row,SMILES,PBMC 10 μM (% control)
1,"Cc1c(C(=O)N2CCc3c(nnn3-c3ncccn3)[C@@H]2C)cccc1C(F)(F)F (single isomer, unassigned) [Example 197, (S*)-(4-methyl-1-(pyrimidin-2-yl)-6,7-dihydro-1H-[1,2,3]triazolo[4,5-c]pyridin-5(4H)-yl)(2-methyl-3-(trifluoromethyl)phenyl)methanone]",2.1
2,"C[C@@H]1c2nnn(-c3ncc(F)cn3)c2CCN1C(=O)c1cccc(C(F)(F)F)c1F (single isomer, unassigned) [Example 190, (R*)-(2-fluoro-3-(trifluoromethyl)phenyl)(1-(5-fluoropyrimidin-2-yl)-4-methyl-6,7-dihydro-1H-[1,2,3]triazolo[4,5-c]pyridin-5(4H)-yl)methanone]",7.1
3,"COc1ccnc(-n2nnc3c2CCN(C(=O)c2cccc(C(F)(F)F)c2Cl)[C@H]3C)c1 (single isomer, unassigned) [Example 151, (R*)-(2-Chloro-3-(trifluoromethyl)phenyl)(1-(4-methoxypyridin-2-yl)-4-methyl-6,7-dihydro-1H-[1,2,3]triazolo[4,5-c]pyridin-5(4H)-yl)methanone]",19.5
4,"Cc1c(C(=O)N2CCc3c(nnn3-c3ncccn3)[C@H]2C)cccc1C(F)(F)F (single isomer, unassigned) [Example 188, (R*)-(4-methyl-1-(pyrimidin-2-yl)-6,7-dihydro-1H-[1,2,3]triazolo[4,5-c]pyridin-5(4H)-yl)(2-methyl-3-(trifluoromethyl)phenyl)methanone]",−0.7
5,"COCCn1ccc(-n2nnc3c2CCN(C(=O)c2cccc(C(F)(F)F)c2Cl)[C@H]3C)n1 (single isomer, unassigned) [Example 249, (S*)-(2-Chloro-3-(trifluoromethyl)phenyl)(1-(1-(2-methoxyethyl)-1H-pyrazol-3-yl)-4-methyl-6,7-dihydro-1H-[1,2,3]triazolo[4,5-c]pyridin-5(4H)-yl)methanone]",5.1
6,"C[C@H]1Cc2c(nnn2-c2ncc(F)cn2)CN1C(=O)c1ccnc(C(F)(F)F)c1Cl (single isomer, unassigned) [Example 183, (R*)-(3-chloro-2-(trifluoromethyl)pyridin-4-yl)(1-(5-fluoropyrimidin-2-yl)-6-methyl-6,7-dihydro-1H-[1,2,3]triazolo[4,5-c]pyridin-5(4H)-yl)methanone]",−1.2
7,"C[C@H]1Cc2c(nnn2-c2ncc(F)cn2)CN1C(=O)c1cccc(C(F)(F)F)c1F [Example 220, (6S)-1-(5-Fluoropyrimidin-2-yl)-5-{[2-fluoro-3-(trifluoromethyl)phenyl]carbonyl}-6-methyl-4,5,6,7-tetrahydro-1H-[1,2,3]triazolo[4,5-c]pyridine]",15.1
8,"CC1c2nnn(-c3ncccn3)c2CCN1C(=O)c1cccc(C(F)(F)F)c1Cl (stereo not drawn) [Example 80, 5-{[2-Chloro-3-(trifluoromethyl)phenyl]carbonyl}-4-methyl-1-pyrimidin-2-yl-4,5,6,7-tetrahydro-1H-[1,2,3]triazolo[4,5-c]pyridine]",4.6
9,"C[C@H]1c2nnn(-c3cc(F)ccn3)c2CCN1C(=O)c1cccc(C(F)(F)F)c1Cl (single isomer, unassigned) [Example 149, (S*)-(2-Chloro-3-(trifluoromethyl)phenyl)(1-(4-fluoropyridin-2-yl)-4-methyl-6,7-dihydro-1H-[1,2,3]triazolo[4,5-c]pyridin-5(4H)-yl)methanone]",3.5
10,C[C@H]1c2ncn(-c3ccc(F)cn3)c2CCN1C(=O)c1cccc(C(F)(F)F)c1Cl (stereo in doubt) [Example 41],40.5
11,"C[C@H]1c2ncn(-c3ccc(F)cc3)c2CCN1C(=O)c1cccc(C(F)(F)F)c1Cl (single isomer, unassigned) [Example 47]",−1.1
12,"O=C(c1cccc(C(F)(F)F)c1Cl)N1CCc2c(ncn2-c2ccc(F)cn2)C1 [Example 315, (2-chloro-3-(trifluoromethyl)phenyl)(1-(5-fluoropyridin-2-yl)-6,7-dihydro-1H-imidazo[4,5-c]pyridin-5(4H)-yl)methanone]",8.8
13,"O=C(c1ccc(Cl)cc1Cl)N1CCc2c(nnn2-c2ncccn2)C1 [Example 257, (2,4-dichlorophenyl)(1-(pyrimidin-2-yl)-6,7-dihydro-1H-[1,2,3]triazolo[4,5-c]pyridin-5(4H)-yl)methanone]",7.1
14,"Cc1nc(-n2nnc3c2CCN(C(=O)c2cccc(C(F)(F)F)c2Cl)C3C)ncc1F (single isomer, unassigned) [Example 306, (S*)-(2-chloro-3-(trifluoromethyl)phenyl)(1-(5-fluoro-4-methylpyrimidin-2-yl)-4-methyl-6,7-dihydro-1H-[1,2,3]triazolo[4,5-c]pyridin-5(4H)-yl)methanone]",2.5
15,"C[C@H]1c2nnn(-c3cnccn3)c2CCN1C(=O)c1ccc(F)c(Cl)c1Cl (single isomer, unassigned) [Example 144, (S*)-(2,3-Dichloro-4-fluorophenyl)(4-methyl-1-(pyrazin-2-yl)-6,7-dihydro-1H-[1,2,3]triazolo[4,5-c]pyridin-5(4H)-yl)methanone]",19.6
16,"Cc1cccnc1-n1nnc2c1CCN(C(=O)c1cccc(C(F)(F)F)c1Cl)[C@H]2C (single isomer, unassigned) [Example 292, (S*)-(2-chloro-3-(trifluoromethyl)phenyl)(4-methyl-1-(3-methylpyridin-2-yl)-6,7-dihydro-1H-[1,2,3]triazolo[4,5-c]pyridin-5(4H)-yl)methanone]",36.7
17,"CC1Cc2c(nnn2-c2ncc(F)cn2)CN1C(=O)c1cccc(Cl)c1Cl (stereo not drawn) [Example 203, 5-[(2,3-Dichlorophenyl)carbonyl]-1-(5-fluoropyrimidin-2-yl)-6-methyl-4,5,6,7-tetrahydro-1H-[1,2,3]triazolo[4,5-c]pyridine]",0.6
18,"C[C@H]1c2nnn(-c3ncc(F)cn3)c2CCN1C(=O)c1ccnc(C(F)(F)F)c1Cl (single isomer, unassigned) [Example 164, (S*)-(3-chloro-2-(trifluoromethyl)pyridin-4-yl)(1-(5-fluoropyrimidin-2-yl)-4-methyl-6,7-dihydro-1H-[1,2,3]triazolo[4,5-c]pyridin-5(4H)-yl)methanone]",98.1
19,"C[C@@H]1c2nnn(-c3ccn[nH]3)c2C[C@H](C)N1C(=O)c1cccc(C(F)(F)F)c1Cl [Example 310, (2-chloro-3-(trifluoromethyl)phenyl)((4R,6S)-4,6-dimethyl-1-(1H-pyrazol-5-yl)-6,7-dihydro-1H-[1,2,3]triazolo[4,5-c]pyridin-5(4H)-yl)methanone]",12.2
20,"C[C@@H]1c2nnn(-c3ncc(F)cn3)c2CCN1C(=O)c1cccc(C(F)(F)F)c1Cl (single isomer, unassigned) [Example 158, (R*)-(2-Chloro-3-(trifluoromethyl)phenyl)(1-(5-fluoropyrimidin-2-yl)-4-methyl-6,7-dihydro-1H-[1,2,3]triazolo[4,5-c]pyridin-5(4H)-yl)methanone]",1.1
21,"C[C@@H]1Cc2c(nnn2-c2ncccc2F)CN1C(=O)c1cccc(Cl)c1Cl (single isomer, unassigned) [Example 165, (6R*)-5-[(2,3-Dichlorophenyl)carbonyl]-1-(3-fluoropyridin-2-yl)-6-methyl-4,5,6,7-tetrahydro-1H-[1,2,3]triazolo[4,5-c]pyridine]",60.7
22,"C[C@H]1Cc2c(nnn2-c2ncccc2F)CN1C(=O)c1cccc(C(F)(F)F)c1Cl (single isomer, unassigned) [Example 168, (6S*)-5-{[2-Chloro-3-(trifluoromethyl)phenyl]carbonyl}-1-(3-fluoropyridin-2-yl)-6-methyl-4,5,6,7-tetrahydro-1H-[1,2,3]triazolo[4,5-c]pyridine]",−4.2
23,"C[C@@H]1c2ncn(-c3ccccn3)c2CCN1C(=O)c1cccc(C(F)(F)F)c1F (single isomer, unassigned) [Example 42, (4R*)-5-{[2-Fluoro-3-(trifluoromethyl)phenyl]carbonyl}-4-methyl-1-pyridin-2-yl-4,5,6,7-tetrahydro-1H-imidazo[4,5-c]pyridine]",5.8
24,"C[C@@H]1Cc2c(nnn2-c2ncc(F)cn2)CN1C(=O)c1cccc(C(F)(F)F)c1F [Example 219, (6R)-1-(5-Fluoropyrimidin-2-yl)-5-{[2-fluoro-3-(trifluoromethyl)phenyl]carbonyl}-6-methyl-4,5,6,7-tetrahydro-1H-[1,2,3]triazolo[4,5-c]pyridine]",76.5
